Values after ≈ are worked out from the molar mass of the structure shown.
How the values were obtained:
Experiment in all cases: Microbroth dilution (MHB) method, NCCLS M7-A2
[1] = tested on: Enterobacter cloacae S-130; format: cell-based; conditions: Enterobacter cloacae, S130, Ecl S-130, inoculum 5 x 10^5 cfu/ml, 35 °C/18 hr, read-out: MIC
Method: (§1) The test organisms were obtained from ATCC and clinical laboratories. The 96-well microtitre plates containing […] of serially diluted test compounds in Mueller Hinton Broth (MHB) (conc. range 64-0.03 µg/ml) were inoculated with […] of bacterial suspension in MHB so that an inoculum size of 5 x 10^5 cfu/ml was achieved.
(§2) EC. (S- 63): Eschericia coli Ecl. (S- 130): Enterobacter cloacae Pa. (S- 67): Pseudomonas aeruginosa Kp. (S- 80): Klebsiella pneumoniae Pr.
(§3) Microbroth Dilution (MHB) method; Inoculum, 5 x 10^5 cfu/ml; Incubation 35 °C/18 hr

Eschericia coli S-63 = format: cell-based; conditions: Ec S-63, inoculum 5 x 10^5 cfu/ml, 35 °C/18 hr, read-out: MIC
Method: as §1, §2, §3

[2] = tested on: Klebsiella pneumoniae S-80; format: cell-based; conditions: Klebsiella pneumoniae, S80; Kp S-80; MHB; inoculum 5 x 10^5 cfu/ml; 35 °C/18 hr; read-out: MIC
Method: as §1, §2, §3

[3] = tested on: Providencia rettgeri S-121; format: cell-based; conditions: Providencia rettgeri, S121, Pr S-121, inoculum 5 x 10^5 cfu/ml, 35 °C/18 hr, read-out: MIC
Method: as §1, §2, §3

[4] = tested on: Pseudomonas aeruginosa S-67; format: cell-based; conditions: Pseudomonas aeruginosa, S67; Pa S-67; MHB; inoculum 5 x 10^5 cfu/ml; 35 °C/18 hr; read-out: MIC
Method: as §1, §2, §3

[5] = tested on: Staphylococcus aureus S-127; format: cell-based; conditions: Staphylococcus aureus, S127, Sa S-127, inoculum 5 x 10^5 cfu/ml, 35 °C/18 hr, read-out: MIC
Method: as §1, §2, §3

Sa 127M = format: cell-based, Staphylococcus aureus; conditions: Staphylococcus aureus, inoculum 5 x 10^5 cfu/ml, 35 °C/18 hr, read-out: MIC
Method: as §1, §2, §3

Compound | MIC [1] [µg/mL] | MIC (Eschericia coli S-63) [µg/mL] | MIC [2] [µg/mL] | MIC [3] [µg/mL] | MIC [4] [µg/mL] | MIC [5] [µg/mL] | MIC (Sa 127M) [µg/mL]
O=C(O)c1cn(C2CC2)c2c(F)c(N3CCC(n4cc(-c5ccccc5)nn4)C3)c(F)cc2c1=O (stereo not drawn) [Example 46, 1-cyclopropyl-6,8-difluoro-7-[3-(4-phenyl-1,2,3-triazol-1-yl)-pyrrolidin-1-yl]-1,4-dihydro-4-oxo-quinoline-3-carboxylic acid] | 1 (≈ 2.09 µM) | 0.25 (≈ 0.524 µM) | 1 (≈ 2.09 µM) | 0.015 (≈ 0.0314 µM) | 32 (≈ 67 µM) | 0.015 (≈ 0.0314 µM) | 0.015 (≈ 0.0314 µM)
Nc1c(F)c(N2CCC(n3cc(-c4ccccc4)nn3)C2)c(F)c2c1c(=O)c(C(=O)O)cn2C1CC1 (stereo not drawn) [Example 47, 5-amino-1-cyclopropyl-6,8-difluoro-7-[3-(4-phenyl-1,2,3-triazol-1-yl)-pyrrolidin-1-yl]-1,4-dihydro-4-oxo-quinoline-3-carboxylic acid] | 16 (≈ 32.5 µM) | 0.25 (≈ 0.508 µM) | 0.5 (≈ 1.02 µM) | 0.015 (≈ 0.0305 µM) | > 32 | 0.015 (≈ 0.0305 µM) | 0.015 (≈ 0.0305 µM)
O=C(O)c1cn(C2CC2)c2c(F)c(N3CCC(n4nncc4C(=O)O)C3)c(F)cc2c1=O (stereo not drawn) [Example 43, 1-Cyclopropyl-6,8-difluoro-7-(3-(5-carboxy-1,2,3-triazol-1-yl)-pyrrolidin-1-yl)-1,4-dihydro-4-oxo-quinoline-3-carboxylic acid] | 32 (≈ 71.8 µM) | 16 (≈ 35.9 µM) | 32 (≈ 71.8 µM) | 32 (≈ 71.8 µM) | > 32 | 8 (≈ 18 µM) | 8 (≈ 18 µM)
COc1c(N2CCC(n3ccnn3)C2)c(F)cc2c(=O)c(C(=O)O)cn(C3CC3)c12 (stereo not drawn) [Example 32, 1-Cyclopropyl-6-fluoro-7-[3-(1,2,3-triazol-1-yl)pyrrolidin-1-yl]-8-methoxy-1,4-dihydro-4-oxo-quinoline-3-carboxylic acid] | 0.5 (≈ 1.21 µM) | 0.12 (≈ 0.29 µM) | 0.25 (≈ 0.605 µM) | 0.12 (≈ 0.29 µM) | 4 (≈ 9.68 µM) | ≤ 0.03 | ≤ 0.03
O=C(O)c1cn(C2CCN(c3c(F)cc4c(=O)c(C(=O)O)cn(C5CC5)c4c3F)C2)nn1 (stereo not drawn) [Example 45, 1-cyclopropyl-6,8-difluoro-7-[3-(4-carboxyl-1,2,3-triazol-1-yl)pyrrolidin-1-yl]-1,4-dihydro-4-oxo-quinoline-3-carboxylic acid] | – | 0.25 (≈ 0.561 µM) | – | – | – | – | 1 (≈ 2.25 µM)
Nc1cn(C2CCN(c3c(F)cc4c(=O)c(C(=O)O)cn(C5CC5)c4c3F)C2)nn1 (stereo not drawn) [Example 42, 1-Cyclopropyl-6,8-difluoro-7-(3-(4-amino-1,2,3-triazol-1-yl)-pyrrolidin-1-yl)-1,4-dihydro-4-oxo-quinoline-3-carboxylic acid] | 1 (≈ 2.4 µM) | 0.5 (≈ 1.2 µM) | 1 (≈ 2.4 µM) | 1 (≈ 2.4 µM) | 4 (≈ 9.61 µM) | 0.25 (≈ 0.6 µM) | 1 (≈ 2.4 µM)
Cc1cn(C2CCN(c3c(F)cc4c(=O)c(C(=O)O)cn(C5CC5)c4c3F)C2)nn1 (stereo not drawn) [Example 27, 1-Cyclopropyl-6,8-difluoro-7-[3-(4-methyl-1,2,3-triazol-1-yl)pyrrolidin-1-yl]-1,4-dihydro-4-oxo-quinoline-3-carboxylic acid] | 1 (≈ 2.41 µM) | 0.25 (≈ 0.602 µM) | 0.5 (≈ 1.2 µM) | 2 (≈ 4.81 µM) | 4 (≈ 9.63 µM) | 0.125 (≈ 0.301 µM) | 0.25 (≈ 0.602 µM)
Cc1cn(C2CCN(c3c(F)cc4c(=O)c(C(=O)O)cn5c4c3OC[C@@H]5C)C2)nn1 (single isomer, unassigned; (-)) [Example 39] | 1 (≈ 2.42 µM) | 0.25 (≈ 0.605 µM) | 1 (≈ 2.42 µM) | 1 (≈ 2.42 µM) | 8 (≈ 19.4 µM) | 0.03 (≈ 0.0726 µM) | 0.12 (≈ 0.29 µM)
O=C(O)c1cn(C2CC2)c2c(F)c(N3CCC(n4cncn4)C3)c(F)cc2c1=O (stereo not drawn) [Example 29, 1-Cyclopropyl-6,8-difluoro-7-[3-(1,2,4-triazol-1-yl)pyrrolidin-1-yl]-1,4-dihydro-4-oxo-quinoline-3-carboxylic acid] | 0.25 (≈ 0.623 µM) | 0.12 (≈ 0.299 µM) | 0.5 (≈ 1.25 µM) | 0.25 (≈ 0.623 µM) | 4 (≈ 9.97 µM) | 0.03 (≈ 0.0747 µM) | 0.06 (≈ 0.149 µM)
Cc1c(F)c(N2CCC(n3cc(-c4ccccc4)nn3)C2)c(F)c2c1c(=O)c(C(=O)O)cn2C1CC1 (stereo not drawn) [Example 48, 1-cyclopropyl-6,8-difluoro-5-methyl-7-[3(4-phenyl-1,2,3-triazol-1-yl)-pyrrolidin-1-yl]-1,4-dihydro-4-oxo-quinoline-3-carboxylic acid] | 4 (≈ 8.14 µM) | 1 (≈ 2.03 µM) | 4 (≈ 8.14 µM) | 0.015 (≈ 0.0305 µM) | 16 (≈ 32.6 µM) | 0.015 (≈ 0.0305 µM) | 0.015 (≈ 0.0305 µM)
O=C(O)c1cn(C2CC2)c2c(F)c(N3CCC(n4ccnn4)C3)c(F)c(F)c2c1=O (stereo not drawn) [Example 49, 1-cyclopropyl-5,6,8-trifluoro-7-[3-(1,2,3-triazol-1-yl)-pyrrolidin-1-yl]-1,4-dihydro-4-oxo-quinoline-3-carboxylic acid] | 0.5 (≈ 1.19 µM) | 0.5 (≈ 1.19 µM) | 0.5 (≈ 1.19 µM) | 0.12 (≈ 0.286 µM) | 8 (≈ 19.1 µM) | 0.25 (≈ 0.596 µM) | 0.25 (≈ 0.596 µM)
Nc1cn(C2CCN(c3c(F)c(N)c4c(=O)c(C(=O)O)cn(C5CC5)c4c3F)C2)nn1 (stereo not drawn) [Example 41, 5-Amino-1-cyclopropyl-6,8-difluoro-7-(3-(4-amino-1,2,3-triazol-1-yl)-pyrrolidin-1-yl)-1,4-dihydro-4-oxo-quinoline-3-carboxylic acid] | – | 0.12 (≈ 0.278 µM) | – | – | – | 0.03 (≈ 0.0695 µM) | –
NCc1cnnn1C1CCN(c2c(F)cc3c(=O)c(C(=O)O)cn(C4CC4)c3c2F)C1 (stereo not drawn) [Example 44] | 0.25 (≈ 0.581 µM) | 0.5 (≈ 1.16 µM) | 1 (≈ 2.32 µM) | 1 (≈ 2.32 µM) | 8 (≈ 18.6 µM) | 25 (≈ 58.1 µM) | –
O=C(O)c1cn(C2CC2)c2c(F)c(N3CCC(n4cnnn4)C3)c(F)cc2c1=O (stereo not drawn) [Example 52, 1-Cyclopropyl-6,8-fluoro-7-[3-(1,2,3,4-tetrazol-1-yl)pyrrolidin-1-yl]-1,4-dihydro-4-oxo-quinoline-3-carboxylic acid] | – | 0.06 (≈ 0.149 µM) | 0.25 (≈ 0.621 µM) | 0.12 (≈ 0.298 µM) | 2 (≈ 4.97 µM) | 0.06 (≈ 0.149 µM) | –
Nc1c(F)c(N2CCC(n3cncn3)C2)c(F)c2c1c(=O)c(C(=O)O)cn2C1CC1 (stereo not drawn) [Example 28, 5-Amino-1-cyclopropyl-6,8-difluoro-7-[3-(1,2,4-triazol-1-yl)pyrrolidin-1-yl]-1,4-dihydro-4-oxo-quinoline-3-carboxylic acid] | – | 0.12 (≈ 0.288 µM) | – | – | – | ≤ 0.015 | –
COc1c(N2CCC(n3cncn3)C2)c(F)cc2c(=O)c(C(=O)O)cn(C3CC3)c12 (stereo not drawn) [Example 34, 1-Cyclopropyl-6-fluoro-7-[3-(1,2,4-triazol-1-yl)pyrrolidin-1-yl]-8-methoxy-1,4-dihydro-4-oxo-quinoline-3-carboxylic acid] | 0.5 (≈ 1.21 µM) | 0.5 (≈ 1.21 µM) | 0.5 (≈ 1.21 µM) | 0.5 (≈ 1.21 µM) | 8 (≈ 19.4 µM) | 0.5 (≈ 1.21 µM) | –
O=C(O)c1cn(C2CC2)c2c(F)c(N3CCC(n4ncnn4)C3)c(F)cc2c1=O (stereo not drawn) [Example 51, 1-Cyclopropyl-6,8-difluoro-7-[3-(1,2,3,4-tetrazol-2-yl)pyrrolidin-1-yl]-1,4-dihydro-4-oxo-quinoline-3-carboxylic acid] | – | 0.06 (≈ 0.149 µM) | 0.12 (≈ 0.298 µM) | 0.12 (≈ 0.298 µM) | 2 (≈ 4.97 µM) | ≤ 0.03 | ≤ 0.03

From EP0561850B1, “7-SUBSTITUTED-6-FLUORO-1,4-DIHYDRO-4-OXO-QUINOLINE-3-CARBOXYLIC ACID COMPOUNDS USEFUL AS ANTIBACTERIAL AGENTS” (priority 1990, dated 1992)
